tested on: serum IgE from patients with documented peanut hypersensitivity; assay: IgE immunoblot mapping of human IgE binding epitopes on synthesized peanut antigen peptides; conditions: Ara h 3 epitope; 10 patients tested
Procedure: (§1) IGE IMMUNOBLOT ANALYSIS: Membranes to be blotted were prepared either by SDS-PAGE (performed by the method of Laemmli Nature 227:680-685, 1970; incorporated herein by reference) of digested peanut antigen or by synthesis of antigen peptides on a derivativized cellulose membrane. SDS-PAGE gels were composed of 10% acrylamide resolving gel and 4% acrylamide stacking gel. Electrophoretic transfer and immunoblotting on nitrocellulose paper was performed by the procedures of Towbin (Proc. Natl. Acad. Sci. USA 76:4350-4354, 1979; incorporated herein by reference).
[…] […] At least 5 ml of venous blood was drawn from each patient and allowed to clot, and the serum was collected. All studies were approved by the Human Use Advisory Committee at the University of Arkansas for Medical Sciences. Serum was diluted in a solution containing TBS and 1% bovine serum albumin and incubated with antigen for at least 12 h at 4° C. or for 2 h at room temperature. The bound primary antibody was detected with ^125I-labeled anti-IgE antibody (Sanofi Diagnostics Pasteur Inc., Paris, France).
PEPTIDE SYNTHESIS: Individual peptides were synthesized on a derivativized cellulose membrane using Fmoc amino acid active esters according to the manufacturer's instructions (Genosys Biotechnologies, Woodlands, Tex.). Fmoc-amino acid derivatives were dissolved in 1-methyl-2-pyrrolidone and loaded on marked spots on the membrane. Coupling reactions were followed by acetylation with a solution of 4% (v/v) acetic anhydride in N,N-dimethyl formamide (DMF). After acetylation, Fmoc groups were removed by incubation of the membrane in 20% (v/v) piperdine in DMF. The membrane was then stained with bromophenol blue to identify the location of the free amino groups. Cycles of coupling, blocking, and deprotection were repeated until the peptides of the desired length were synthesized. After addition of the last amino acid in the peptide, the amino acid side chains were deprotected using a solution of dichloromethane/trifluoroacetic acid/triusobutylsilante (1/10/0.05). Membranes were either probed immediately or stored at −20° C. until needed.

patients whose serum IgE recognized the epitope | Sequence
10 | VTVRGGLRTLSPDRK [Ara h 3 epitope 3]

same assay, conditions: human IgE binding epitopes in Ara h 3

FRACTION OF PATIENTS WITH IGE THAT BIND | Sequence
2 (38%) | GNIFSGFTPEFLEQA [Ara h 3 epitope 2]
4 (38%) | DEDEYEYDEEDRRRG [Ara h 3 epitope 4]
1 (25%) | IETWNPNNQEFECAG [Ara h 3 epitope 1]
3 (100%) | VTVRGGLRTLSPDRK [Ara h 3 epitope 3]

tested on: serum IgE from mice sensitized to recombinant Ara h 2; assay: IgE immunoblot mapping of murine IgE binding epitopes in Ara h 2; conditions: mouse Ara h 2 epitopes; densitometric analysis of the blot
Procedure: as §1
For mapping of murine IgE binding sites, a blot containing overlapping 13 mer peptides, offset by 2 amino acids, was incubated with serum from peanut sensitized mice as described in U.S. patent application Ser. No. 09/455,294, filed Dec. 6, 1999; incorporated herein by reference.
PEPTIDE SYNTHESIS: Individual peptides were synthesized on a derivativized cellulose membrane using Fmoc amino acid active esters according to the manufacturer's instructions (Genosys Biotechnologies, Woodlands, Tex.). Fmoc-amino acid derivatives were dissolved in 1-methyl-2-pyrrolidone and loaded on marked spots on the membrane. Coupling reactions were followed by acetylation with a solution of 4% (v/v) acetic anhydride in N,N-dimethyl formamide (DMF). After acetylation, Fmoc groups were removed by incubation of the membrane in 20% (v/v) piperdine in DMF. […]

Sequence | contribution to the observed IgE reactivity, single epitope
RCQSQLERA [mouse Ara h 2 epitope (3)] | about 15%

tested on: T cell preparations; assay: T cell stimulation by 5/20 native Ara h 2 peptides; type: cell-based, human; conditions: analysis of 15 patients
Procedure: Each peptide was tested, using standard techniques, on 19 different T cell preparations. Positive scores, defined as a T cell stimulation index of >2, are indicated by shading.
Each of these peptides was tested for its ability to stimulate T cells. Each peptide was tested, using standard techniques, on 19 different T cell preparations. Positive scores, defined as a T cell stimulation index of >2, are indicated by shading.
As discussed herein, it may sometimes be desirable to prepare blocking agent compositions comprising antigen fragments (e.g., IgE binding site and one or more T cell epitopes).

Sequence | single IgE site and T cell epitope in the same peptide
PCEQHLMQKIQRDEDSYERD [Peptide 9] | both a single IgE site and a T cell epitope recognized by at least one person
LMQKIQRDEDSYERDPYSPS [Peptide 10] | both a single IgE site and a T cell epitope recognized by at least one person
ALALFLLAAHASARQQWELQ [Peptide 2] | both a single IgE site and a T cell epitope recognized by at least one person
LLAAHASARQQWELQGDRRC [Peptide 3] | both a single IgE site and a T cell epitope recognized by at least one person
RANLRPCEQHLMQKIQRDED [Peptide 8] | both a single IgE site and a T cell epitope recognized by at least one person
LTILVALALFLLAAHASARQ [Peptide 1] | both a single IgE site and a T cell epitope recognized by at least one person
